The source of these data is the supplement of paper PMC10307832.

Holding throughout (experiment): relative viability (nuclei count vs DMSO), 5 days (fraction); higher = more cells survive
Compound in assay [1]: COc1cc2/c(=N/c3ccc(Br)cc3F)nc[nH]c2cc1OCC1CCN(C)CC1 [Vandetanib] + CC(C)C[C@H](NC(=O)[C@H](Cc1ccccc1)NC(=O)c1cnccn1)B(O)O [Bortezomib] (partner 0.002 µM)
Put shortly: (§1)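 Relative viability divides the nuclei count in treated wells by that in vehicle wells. Lung cancer cell lines were seeded in 1536-well plates, dosed by pin tool the next day, and fixed and stained after 5 days in one step with final 0.05% Triton X-100, 1% formaldehyde and 1 ug/ml Hoechst. Dosing was a single drug or a fixed anchor-drug dose plus five library-drug doses (not always all listed) in √10 steps, and values are medians of duplicate plates imaged at 4×.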

Compound in assay [2]: C1=CC=C2C(=C1)N=C(S2)C(C#N)C3=NC(=NC=C3)NCCC4=CN=CC=C4 + Cc1nc(Nc2ncc(C(=O)Nc3c(C)cccc3Cl)s2)cc(N2CCN(CCO)CC2)n1 [Dasatinib] (partner 0.075 µM)
An outline of the steps:
as §1

Compound in assay [3]: COc1cc2/c(=N/c3ccc(Br)cc3F)nc[nH]c2cc1OCC1CCN(C)CC1 [Vandetanib] + CCNC(=O)c1noc(-c2cc(C(C)C)c(O)cc2O)c1-c1ccc(CN2CCOCC2)cc1 [Luminespib] (partner 0.01 µM)
Put shortly: as §1

Compound in assay [4]: C#Cc1cccc(Nc2ncnc3cc(OC)c(OCCCCCCC(=O)NO)cc23)c1 [CUDC-101] + CC(C)C[C@H](NC(=O)[C@H](Cc1ccccc1)NC(=O)c1cnccn1)B(O)O [Bortezomib] (partner 0.002 µM)
Put shortly:
as §1

For UMC-11, the relative viability in assay [1] (first compound 0.02 µM) turned out to be 0.743; in assay [1] (first compound 0.06325 µM), 0.708; in assay [1] (first compound 0.2 µM) it was 0.61; in assay [1] (first compound 0.6325 µM), 0.725; in assay [1] (first compound 2 µM), 0.746; in assay [2] (first compound 0.005 µM), 0.257. The relative viability in assay [2] (first compound 0.01581 µM) stood at 0.481; in assay [2] (first compound 0.05 µM) it was 0.447; in assay [2] (first compound 0.1581 µM), 0.583; in assay [2] (first compound 0.5 µM), 0.379; in assay [3] (first compound 0.02 µM) it was 1.06; in assay [3] (first compound 0.06325 µM), 1.01. In addition, the relative viability in assay [3] (first compound 0.2 µM) is 0.225; in assay [3] (first compound 0.6325 µM) it was 0.998; in assay [3] (first compound 2 µM) it was 1.03; in assay [4] (first compound 0.01 µM) it was 0.918; in assay [4] (first compound 0.03162 µM), 0.831; in assay [4] (first compound 0.1 µM) it was 0.468. Further, the relative viability in assay [4] (first compound 0.3162 µM) was 0.576; in assay [4] (first compound 1 µM) it was 0.167.
